By mass density is commonly meant mass per unit of volume.

This passage reports mass density results from the NIST ThermoML archive (doi:10.1016/j.jct.2017.07.026).

The conditions of series [1]: 298.15 K, Liquid.
Series [2] can be described thus: mn = molality of the nth substance listed, in mol/kg. The settings on record: 298.15 K, 100 kPa, Liquid, Vibrating tube method.

Molecules are shown by their SMILES. Numbers after ± are expanded uncertainties.

Consider `CCCCCC(C)C` [2-methylheptane], for which the mass density in series [1] (100 kPa, Vibrating tube method) came out at 693.9 ± 1.4 kg/m3.
Take `CCCCCC(C)C` [2-methylheptane] + CO: the mass density in series [2] (m1 = 0.1174) is 784.76 ± 0.33 kg/m3; in series [2] (m1 = 0.1406), 784.42 ± 0.33 kg/m3; in series [2] (m1 = 0.2155), 783.3 ± 0.33 kg/m3; in series [2] (m1 = 0.3711), 781.09 ± 0.33 kg/m3; in series [2] (m1 = 0.4177), 780.47 ± 0.33 kg/m3; in series [2] (m1 = 0.4497), 780.04 ± 0.33 kg/m3. The mass density in series [2] (m1 = 0.5259) is given as 779.01 ± 0.33 kg/m3; in series [2] (m1 = 0.5815) it was 778.29 ± 0.34 kg/m3; in series [2] (m1 = 0.639), 777.54 ± 0.34 kg/m3; in series [2] (m1 = 0.7339), 776.35 ± 0.34 kg/m3.
For `CCCC(C)C` [2-methylpentane], the mass density in series [1] (100 kPa, Vibrating tube method) was found to be 648.48 ± 0.67 kg/m3.
Take `CCCC(C)C` [2-methylpentane] + CO: the mass density in series [2] (m1 = 0.02577) came to 786.15 ± 0.33 kg/m3; in series [2] (m1 = 0.09112) it was 785.08 ± 0.33 kg/m3; in series [2] (m1 = 0.1002) it was 784.95 ± 0.33 kg/m3; in series [2] (m1 = 0.1267), 784.51 ± 0.33 kg/m3; in series [2] (m1 = 0.1833), 783.59 ± 0.33 kg/m3; in series [2] (m1 = 0.2247), 782.95 ± 0.33 kg/m3. Also, the mass density in series [2] (m1 = 0.2392) was found to be 782.73 ± 0.33 kg/m3; in series [2] (m1 = 0.3355) it was 781.24 ± 0.33 kg/m3; in series [2] (m1 = 0.3506) it was 781.02 ± 0.33 kg/m3; in series [2] (m1 = 0.3833), 780.53 ± 0.33 kg/m3; in series [2] (m1 = 0.4498), 779.5 ± 0.33 kg/m3; in series [2] (m1 = 0.4937), 778.85 ± 0.34 kg/m3. In addition, the mass density in series [2] (m1 = 0.5032) is 778.68 ± 0.34 kg/m3; in series [2] (m1 = 0.5629) it was 777.84 ± 0.34 kg/m3; in series [2] (m1 = 0.6343), 776.78 ± 0.34 kg/m3.
`CCC(C)CC` [3-methylpentane]: the mass density in series [1] (100 kPa, Vibrating tube method) turned out to be 659.76 ± 0.68 kg/m3.
Turning to `CCC(C)CC` [3-methylpentane] + CO, the mass density in series [2] (m1 = 0.02902) stood at 786.12 ± 0.33 kg/m3; in series [2] (m1 = 0.04025), 785.97 ± 0.33 kg/m3; in series [2] (m1 = 0.06079), 785.65 ± 0.33 kg/m3; in series [2] (m1 = 0.07925), 785.37 ± 0.33 kg/m3; in series [2] (m1 = 0.1106) it was 784.93 ± 0.33 kg/m3; in series [2] (m1 = 0.2045) it was 783.51 ± 0.33 kg/m3. Further, the mass density in series [2] (m1 = 0.307) was 782.05 ± 0.33 kg/m3; in series [2] (m1 = 0.3825), 781.03 ± 0.33 kg/m3; in series [2] (m1 = 0.3944) it was 780.81 ± 0.34 kg/m3; in series [2] (m1 = 0.4638), 779.87 ± 0.33 kg/m3; in series [2] (m1 = 0.5751) it was 778.42 ± 0.33 kg/m3; in series [2] (m1 = 0.6145), 777.81 ± 0.34 kg/m3. For the same molecule, the mass density in series [2] (m1 = 0.7207) amounted to 776.46 ± 0.34 kg/m3.
As to `CCCCCCC` [heptane], the mass density in series [1] (101.33 kPa, Pycnometric method) is 679.455 ± 0.22 kg/m3.
Turning to `CO` [methanol], in series [1] (100 kPa, Vibrating tube method), the mass density was determined as 786.57 ± 0.33 kg/m3.
For `CO` [methanol] + CCC(C)CC, the mass density in series [2] (m2 = 0) was 786.57 ± 0.33 kg/m3.
Same read-out and setting: the value for `CO` [methanol] + CCCC(C)C was 786.57 ± 0.33 kg/m3.
Take `CO` [methanol] + CCCCCC(C)C: in series [2] (m2 = 0), the mass density is on record as 786.57 ± 0.33 kg/m3.
On to `Cc1ccccc1` [toluene], for which the mass density in series [1] (101.33 kPa, Pycnometric method) is given as 862.214 ± 0.26 kg/m3.
